Patent US20110020312A1, “METHODS FOR TREATMENT OF METABOLIC DISORDERS USING EPIMETABOLIC SHIFTERS, MULTIDIMENSIONAL INTRACELLULAR MOLECULES, OR ENVIRONMENTAL INFLUENCERS” (priority 2009, published 2011)

Key:
SKBr3 cells = assay: Nexin assay for apoptosis, 24 h Q10; format: cell-based, human; details: 50 μM or 100 μM Q10, 24 hours
Excerpt: The 7AAD dye will enter into cells with permeabilized cell membranes; primarily those cells that are in late apoptosis. Annexin-V-PE is a dye that binds to Phosphotidyl serine, which is exposed on the outer surface of the plasma membrane in early apoptotic cells. The Nexin reagent thus can be used to differentiate between different populations of apoptotic cells in a flow cytometer.

SK-MEL-28 mitochondria = assay: LC-MS/MS quantification of Q10, Q10H2 and Q9 in mitochondrial enriched samples; format: cell-based; details: for Q10 in mitochondrial enriched sample: 100 μM Q10 in the media; for increase in mitochondrial Q10 levels: 100 μM Q10
Method: To control for sample variance in total material, the levels of cholesterol was also measured to confirm that the differences were not due to sample size errors.

a variety of cell types = assay: Western blot analysis (Bcl-xL, Vimentin, oxidative phosphorylation and mitochondrial membrane proteins); format: cell-based; details: 50 or 100 μM Q10
Method: Approximately 50 μg of protein were assayed per sample by immunoblotting. All treatments were run in triplicate with controls. […] The primary antibodies were incubated overnight at 4 degrees C. in a 5% BSA and TBST solution. Secondary antibodies were incubated for one hour at 4 degrees. All antibodies were purchased from Cell Signaling Technology. Antibodies were used at a ratio of 1:1000, with the exception of PActin at a ratio of 1:5000. Blots were developed and results were quantified using the NIH Java based densitometer analysis software Image J. All blots were also probed for and normalized to their respective PActin expression.
The first experiment processed and evaluated by Western blot and 2-D gel electrophoresis was carried out on the skin cancer cell line SKMEL-28.
A variety of cell types were evaluated by Western blot analysis against an antibody for Bcl-xL (FIG. 14), an antibody for Vimentin (FIG. 15), a series of antibodies for mitochondrial oxidative phosphorylation function (FIGS. 16-21) and against a series of antibodies related to mitochondrial membrane integrity (FIGS. 22-27).

[1] = test system: HepG2 (liver cancer) cells; assay: PCR Diabetes Array; format: cell-based
Method: The treatment was initiated on 1×10^5 cells per well, following the procedure utilized in the PaCa2 cells (above, Examples 9-11). However, the total amount of RNA that was extracted from these samples was lower than expected. Reverse transcription is normally done using 1 μg of total RNA (determined by measurement at 260 nm). The maximum volume that can be used per reverse transcription is 8 μl.

[2] = test system: HepG2 (liver cancer) cells; assay: PCR Apoptosis Array; format: cell-based
[3] = test system: HAEC, MCF-7, HepG2 and PC-3 cell lines; assay: OCR and ECAR in other normal and cancer cell lines (data not shown); format: cell-based; details: absence and/or presence of stressors (hyperglycemia, hypoxia, lactic acid)
Method: A similar comparison of OCR and ECAR values (data not shown) were determined in numerous other normal and cancer cells lines, including: HAEC (normal human aortic endothelial cells), MCF-7 (breast cancer), HepG2 (liver cancer) and highly metastatic PC-3 (prostate cancer) cell lines. […] Thus, the overall effect of CoQ10 in the treatment of cancer, including cell death, is an downstream effect of its collective influence on proteomic, genomic, metabolomic outcomes in concert with shifting of the cellular bioenergetics from glycolysis to mitochondrial OXPHOS.

[4] = rats, oral; cited from earlier work
[5] = cited from earlier work

COC1=C(OC)C(=O)C(C/C=C(\C)CC/C=C(\C)CC/C=C(\C)CC/C=C(\C)CC/C=C(\C)CC/C=C(\C)CC/C=C(\C)CC/C=C(\C)CC/C=C(\C)CCC=C(C)C)=C(C)C1=O [Q10, Coenzyme Q10]
early and late apoptosis (SKBr3 cells): did not show any significant increases | Q10 in mitochondrial enriched sample (SK-MEL-28 mitochondria; 6 hr): 7.21 ng/Sample | increase in mitochondrial Q10 levels (SK-MEL-28 mitochondria; 19 hours): ~3 fold | Q10 in mitochondrial enriched sample (SK-MEL-28 mitochondria; 19 hr): 16.77 ng/Sample | increase in mitochondrial Q10 levels (SK-MEL-28 mitochondria; 48 hour): ~6 fold | Q10 in mitochondrial enriched sample (SK-MEL-28 mitochondria; 48 hr): 46.63 ng/Sample | form of Q10 in mitochondria (SK-MEL-28 mitochondria; exogenous Q10 added to media): maintained in the supplied oxidized form | levels of examined proteins (Western blot) (a variety of cell types): upregulated or downregulated | PPARGC1A mRNA downregulated ([1]; 100 μM Q10, 16 hours): approximately 20 fold | PRKAA1 mRNA downregulated ([1]; 100 μM Q10, 16 hours): ~6 fold | SNAP25 mRNA downregulated ([1]; 100 μM Q10, 16 hours): ~5 fold | PPARGC1A mRNA ([1]; 100 μM Q10, 48 hours): normalized or were slightly upregulated | PRKAA1 mRNA ([1]; 100 μM Q10, 48 hours): normalized or were slightly upregulated | SNAP25 mRNA downregulated ([1]; 100 μM Q10, 48 hours): approximately 2 fold | BAG1 mRNA downregulated over control ([2]; 100 uM Q10, 16 hours): approximately 6 fold | CASP9 mRNA upregulated over control ([2]; 100 uM Q10, 16 hours): approximately 61 fold | TNFRSF1A mRNA downregulated over control ([2]; 100 uM Q10, 16 hours): ~4 fold | BAG1 mRNA upregulated over control ([2]; 100 uM Q10, 48 hours): ~1 fold | CASP9 mRNA upregulated over control ([2]; 100 uM Q10, 48 hours): approximately 55 fold | TNFRSF1A mRNA upregulated over control ([2]; 100 uM Q10, 48 hours): ~1 fold | OCR and ECAR values [3]: shift in OCR and ECAR values representative of values observed in a normal cells | orally-administered CoQ10 absorbed [4]: 2-3% | solubility in water [5]: insoluble in water
